According to patent US20240246942A1, “KINASE INHIBITORS FOR THE TREATMENT OF NEURODEGENERATIVE DISEASES” (priority 2020, published 2024):

What was measured:
Assay in all cases: biochemical
[1] = biological target: T1, panel of 374 wild-type kinases (Homo sapiens, UniProt P78368); settings: read-out: % Enzyme Activity (relative to DMSO controls), CK1g2
T1 construct: purchased Reaction Biology Corporation

[2] = biological target: T2, panel of 374 wild-type kinases (Homo sapiens, UniProt Q96SB4); settings: read-out: % Enzyme Activity (relative to DMSO controls), kinase SRPK1
T2 construct: purchased Reaction Biology Corporation

[3] = biological target: T3, panel of 374 wild-type kinases (Homo sapiens, UniProt Q5TCX8); settings: read-out: % Enzyme Activity (relative to DMSO controls), MLK4
T3 construct: purchased Reaction Biology Corporation

[4] = biological target: T4, panel of 374 wild-type kinases (Homo sapiens, UniProt P29323); settings: read-out: % Enzyme Activity (relative to DMSO controls), EPHB2
T4 construct: purchased Reaction Biology Corporation
T4 sequence (P29323 19-1055): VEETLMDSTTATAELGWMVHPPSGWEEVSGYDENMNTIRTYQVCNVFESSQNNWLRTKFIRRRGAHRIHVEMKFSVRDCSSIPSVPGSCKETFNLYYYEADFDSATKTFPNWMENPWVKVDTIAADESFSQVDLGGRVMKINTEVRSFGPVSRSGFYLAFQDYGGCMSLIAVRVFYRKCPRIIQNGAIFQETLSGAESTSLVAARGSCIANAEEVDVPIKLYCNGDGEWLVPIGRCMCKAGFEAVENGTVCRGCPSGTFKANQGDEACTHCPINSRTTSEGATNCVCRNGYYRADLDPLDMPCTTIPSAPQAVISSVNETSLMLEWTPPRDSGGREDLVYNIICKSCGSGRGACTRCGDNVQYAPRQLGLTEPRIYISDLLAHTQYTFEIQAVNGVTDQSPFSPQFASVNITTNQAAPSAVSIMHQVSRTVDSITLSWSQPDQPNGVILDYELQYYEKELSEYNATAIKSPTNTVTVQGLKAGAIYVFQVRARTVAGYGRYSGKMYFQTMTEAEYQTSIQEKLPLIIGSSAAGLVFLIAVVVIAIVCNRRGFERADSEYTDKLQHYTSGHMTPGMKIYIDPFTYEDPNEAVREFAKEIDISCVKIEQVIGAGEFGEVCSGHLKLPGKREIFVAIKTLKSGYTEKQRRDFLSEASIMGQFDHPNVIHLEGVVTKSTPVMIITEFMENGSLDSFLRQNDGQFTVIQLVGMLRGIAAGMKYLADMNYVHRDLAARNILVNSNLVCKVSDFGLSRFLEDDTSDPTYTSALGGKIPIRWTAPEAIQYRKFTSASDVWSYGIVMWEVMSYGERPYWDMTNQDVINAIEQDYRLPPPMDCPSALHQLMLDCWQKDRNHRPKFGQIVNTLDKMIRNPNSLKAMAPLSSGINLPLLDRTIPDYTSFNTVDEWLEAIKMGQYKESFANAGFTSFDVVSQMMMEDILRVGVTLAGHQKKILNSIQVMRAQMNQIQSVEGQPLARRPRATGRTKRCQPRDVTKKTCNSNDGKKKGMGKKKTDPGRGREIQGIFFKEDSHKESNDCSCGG

[5] = biological target: T5, panel of 374 wild-type kinases (Homo sapiens, UniProt Q9UK32); settings: read-out: % Enzyme Activity (relative to DMSO controls), kinase RSK4
T5 construct: purchased Reaction Biology Corporation

[6] = biological target: T6, panel of 374 wild-type kinases (Homo sapiens, UniProt P45983); settings: JNK1, read-out: % Enzyme Activity (relative to DMSO controls)
T6 construct: purchased Reaction Biology Corporation

[7] = biological target: T7, panel of 374 wild-type kinases (Homo sapiens, UniProt Q16832); settings: read-out: % Enzyme Activity (relative to DMSO controls), DDR2
T7 construct: purchased Reaction Biology Corporation
T7 sequence (Q16832 22-855): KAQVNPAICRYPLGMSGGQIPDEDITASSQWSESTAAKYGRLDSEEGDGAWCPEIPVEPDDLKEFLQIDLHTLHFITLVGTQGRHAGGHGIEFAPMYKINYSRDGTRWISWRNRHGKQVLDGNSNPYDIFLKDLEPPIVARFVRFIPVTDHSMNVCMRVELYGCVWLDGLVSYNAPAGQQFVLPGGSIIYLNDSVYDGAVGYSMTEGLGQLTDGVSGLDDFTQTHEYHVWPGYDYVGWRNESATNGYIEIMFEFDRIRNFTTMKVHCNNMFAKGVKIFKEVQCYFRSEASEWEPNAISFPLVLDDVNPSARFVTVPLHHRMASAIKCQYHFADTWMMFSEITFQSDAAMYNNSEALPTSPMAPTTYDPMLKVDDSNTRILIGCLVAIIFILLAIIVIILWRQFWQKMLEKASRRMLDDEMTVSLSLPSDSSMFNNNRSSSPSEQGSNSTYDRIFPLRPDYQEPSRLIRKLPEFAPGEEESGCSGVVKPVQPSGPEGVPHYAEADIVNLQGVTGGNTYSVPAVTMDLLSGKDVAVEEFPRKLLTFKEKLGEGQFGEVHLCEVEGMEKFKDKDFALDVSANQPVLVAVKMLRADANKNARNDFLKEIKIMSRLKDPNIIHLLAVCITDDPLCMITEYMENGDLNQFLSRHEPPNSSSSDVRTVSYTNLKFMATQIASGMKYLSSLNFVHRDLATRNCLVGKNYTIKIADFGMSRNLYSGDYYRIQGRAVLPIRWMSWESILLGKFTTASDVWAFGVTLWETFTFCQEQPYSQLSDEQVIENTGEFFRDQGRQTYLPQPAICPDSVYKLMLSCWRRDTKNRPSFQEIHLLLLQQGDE

T6 sequence (P45983 whole entry): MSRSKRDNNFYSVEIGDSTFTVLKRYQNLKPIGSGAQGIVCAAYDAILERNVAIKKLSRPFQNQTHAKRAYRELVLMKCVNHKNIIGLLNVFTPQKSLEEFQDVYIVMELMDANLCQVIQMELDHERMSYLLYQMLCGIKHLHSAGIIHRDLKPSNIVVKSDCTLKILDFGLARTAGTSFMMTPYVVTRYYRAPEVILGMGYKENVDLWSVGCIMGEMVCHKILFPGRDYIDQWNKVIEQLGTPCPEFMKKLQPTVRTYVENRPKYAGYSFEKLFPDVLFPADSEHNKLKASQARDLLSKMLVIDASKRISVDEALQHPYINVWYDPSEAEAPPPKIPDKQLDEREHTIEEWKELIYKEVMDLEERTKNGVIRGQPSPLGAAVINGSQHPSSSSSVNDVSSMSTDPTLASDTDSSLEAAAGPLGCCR
T3 sequence (Q5TCX8 whole entry): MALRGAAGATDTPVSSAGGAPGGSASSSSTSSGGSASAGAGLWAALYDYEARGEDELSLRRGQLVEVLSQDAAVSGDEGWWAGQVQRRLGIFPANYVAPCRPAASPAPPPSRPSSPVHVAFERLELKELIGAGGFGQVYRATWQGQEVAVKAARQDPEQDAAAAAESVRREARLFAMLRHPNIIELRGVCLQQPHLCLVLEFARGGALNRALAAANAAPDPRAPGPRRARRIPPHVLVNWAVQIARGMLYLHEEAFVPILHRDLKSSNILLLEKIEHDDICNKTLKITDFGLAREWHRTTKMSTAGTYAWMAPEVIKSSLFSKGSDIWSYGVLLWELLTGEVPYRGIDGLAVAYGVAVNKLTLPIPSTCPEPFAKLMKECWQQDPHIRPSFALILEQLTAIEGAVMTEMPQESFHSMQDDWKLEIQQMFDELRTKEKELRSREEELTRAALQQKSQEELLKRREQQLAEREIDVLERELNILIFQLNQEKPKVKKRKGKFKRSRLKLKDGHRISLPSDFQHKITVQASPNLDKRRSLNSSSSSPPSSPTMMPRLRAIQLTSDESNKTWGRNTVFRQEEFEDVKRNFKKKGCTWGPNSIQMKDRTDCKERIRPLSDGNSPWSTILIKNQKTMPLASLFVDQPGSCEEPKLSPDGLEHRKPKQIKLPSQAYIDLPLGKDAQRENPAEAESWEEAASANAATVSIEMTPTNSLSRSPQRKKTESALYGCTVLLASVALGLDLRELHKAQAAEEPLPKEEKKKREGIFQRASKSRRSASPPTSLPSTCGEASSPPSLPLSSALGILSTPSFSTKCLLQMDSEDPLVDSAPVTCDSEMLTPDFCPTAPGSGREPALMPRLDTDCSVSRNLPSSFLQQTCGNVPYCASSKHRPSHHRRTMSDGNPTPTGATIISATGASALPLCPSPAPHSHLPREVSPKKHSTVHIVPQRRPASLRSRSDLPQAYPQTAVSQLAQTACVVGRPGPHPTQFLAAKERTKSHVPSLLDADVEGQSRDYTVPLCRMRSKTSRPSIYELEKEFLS
T1 sequence (P78368 whole entry): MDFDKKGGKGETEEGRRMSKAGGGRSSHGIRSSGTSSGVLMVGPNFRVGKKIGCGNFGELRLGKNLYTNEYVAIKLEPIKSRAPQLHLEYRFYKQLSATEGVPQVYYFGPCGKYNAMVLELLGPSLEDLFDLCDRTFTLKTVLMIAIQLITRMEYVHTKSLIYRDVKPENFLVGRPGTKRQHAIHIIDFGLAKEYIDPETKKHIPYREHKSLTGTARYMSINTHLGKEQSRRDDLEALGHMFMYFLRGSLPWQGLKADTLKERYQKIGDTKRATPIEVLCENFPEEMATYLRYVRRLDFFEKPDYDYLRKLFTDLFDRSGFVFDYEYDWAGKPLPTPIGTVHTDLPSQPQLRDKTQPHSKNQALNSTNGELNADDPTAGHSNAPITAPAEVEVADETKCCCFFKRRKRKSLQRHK
T2 sequence (Q96SB4 whole entry): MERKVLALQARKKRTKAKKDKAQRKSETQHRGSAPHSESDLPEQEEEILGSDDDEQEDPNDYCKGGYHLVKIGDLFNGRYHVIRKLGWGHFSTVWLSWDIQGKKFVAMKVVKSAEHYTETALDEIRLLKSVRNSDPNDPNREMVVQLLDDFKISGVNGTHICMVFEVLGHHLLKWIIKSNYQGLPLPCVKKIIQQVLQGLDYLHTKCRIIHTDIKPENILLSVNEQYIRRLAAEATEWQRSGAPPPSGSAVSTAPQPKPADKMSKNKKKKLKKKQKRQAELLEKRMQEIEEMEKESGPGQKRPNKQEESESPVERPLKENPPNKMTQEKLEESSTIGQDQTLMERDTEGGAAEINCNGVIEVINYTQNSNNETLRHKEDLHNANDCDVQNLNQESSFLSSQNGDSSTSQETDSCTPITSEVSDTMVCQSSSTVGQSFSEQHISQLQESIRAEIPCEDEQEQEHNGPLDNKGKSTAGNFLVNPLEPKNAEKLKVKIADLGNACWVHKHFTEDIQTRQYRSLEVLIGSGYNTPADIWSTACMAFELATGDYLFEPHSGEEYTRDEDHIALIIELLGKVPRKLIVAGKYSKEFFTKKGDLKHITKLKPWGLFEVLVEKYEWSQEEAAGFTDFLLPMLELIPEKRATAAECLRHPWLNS
T5 sequence (Q9UK32 whole entry): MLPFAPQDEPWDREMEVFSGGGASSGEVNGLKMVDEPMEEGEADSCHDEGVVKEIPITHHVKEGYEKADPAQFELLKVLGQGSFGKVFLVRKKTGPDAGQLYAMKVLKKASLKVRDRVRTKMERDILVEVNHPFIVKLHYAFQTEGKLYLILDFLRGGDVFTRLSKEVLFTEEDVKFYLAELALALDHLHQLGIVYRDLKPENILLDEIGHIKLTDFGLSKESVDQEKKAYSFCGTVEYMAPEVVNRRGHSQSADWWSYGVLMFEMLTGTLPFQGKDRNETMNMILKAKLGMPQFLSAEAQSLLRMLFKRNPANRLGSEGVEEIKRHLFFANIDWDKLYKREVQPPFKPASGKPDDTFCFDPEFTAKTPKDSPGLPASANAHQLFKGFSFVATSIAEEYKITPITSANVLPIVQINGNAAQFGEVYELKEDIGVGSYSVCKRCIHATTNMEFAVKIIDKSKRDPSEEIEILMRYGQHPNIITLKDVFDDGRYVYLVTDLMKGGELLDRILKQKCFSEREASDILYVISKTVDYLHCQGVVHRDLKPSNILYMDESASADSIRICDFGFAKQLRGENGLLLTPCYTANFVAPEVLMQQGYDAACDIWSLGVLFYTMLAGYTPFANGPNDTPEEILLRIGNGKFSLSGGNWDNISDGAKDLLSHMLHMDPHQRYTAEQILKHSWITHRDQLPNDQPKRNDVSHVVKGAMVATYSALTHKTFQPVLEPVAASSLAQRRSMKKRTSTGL

Compound	remaining activity at 10 µM ([1]; 10 uM) [%]	remaining activity at 10 µM ([2]; 10 uM) [%]	remaining activity at 10 µM ([3]; 10 uM) [%]	remaining activity at 10 µM ([4]; 10 uM) [%]	remaining activity at 10 µM ([5]; 10 uM) [%]	remaining activity at 10 µM ([6]; 10 uM) [%]	remaining activity at 10 µM ([7]; 10 uM) [%]	remaining activity at 5 µM [1] [%]	remaining activity at 5 µM [2] [%]	remaining activity at 5 µM [3] [%]	remaining activity at 5 µM [4] [%]	remaining activity at 5 µM [5] [%]	remaining activity at 5 µM [6] [%]	remaining activity at 5 µM [7] [%]
Cc1sc(C(=O)NC2COC2)cc1-n1cc(NC(=O)Nc2c(F)cccc2Cl)cn1 [Compound 27, 4-(4-(3-(2-chloro-6-fluorophenyl)ureido)-1H-pyrazol-1-yl)-5-methyl-N-(oxetan-3-yl)thiophene-2-carboxamide]	104	96.9	85.2	109	116	76.3	111							
O=C(Nc1cnn(-c2csc(C(=O)NC3COC3)c2)c1)Nc1c(F)cccc1Cl [Compound 25, 4-(4-(3-(2-chloro-6-fluorophenyl)ureido)-1H-pyrazol-1-yl)-N-(oxetan-3-yl)thiophene-2-carboxamide]								90.2	104	94.3	99.9	92.2	49.1	96.6
O=C(Nc1cnn(-c2csc(C(=O)NC3COC3)c2)c1)Nc1ccccc1Cl [Compound 17, 4-(4-(3-(2-chlorophenyl)ureido)-1H-pyrazol-1-yl)-N-(oxetan-3-yl)thiophene-2-carboxamide]								98.5	98.7	93.2	101	107	57.6	99.8
